Assay [1] has as its system human colon cancer (HCT-116) cell line. The experiment in a line: Cytotoxicity assay (MTT), HCT-116. Format: cell-based. To be noted: 24 h treatment. The procedure:
(§1) The cytotoxic activity was determined against human colon cancer (HCT-116), human non-small-cell lung carcinoma (NCI-H1650), and human ovarian cancer (A2780) cell lines which were bought from the Cell Bank of Shanghai Institute of Cell Biology (Chinese Academy of Sciences) and originally obtained from the American Type Culture Collection (ATCC, Rockville, MD, USA). Cells were grown in RPMI 1640 (GIBCO, New York, NY, USA) supplemented with 10% fetal calf serum (Life Technologies, Carlsbad, CA, USA), penicillin G (100 U/mL), and streptomycin (100 μg/mL) at 37 °C in a 5% CO2 and seeded in 96-well plates (CLS3635, Corning®, Sigma, Santa Clara, CA, USA) at a cell density of 3000 per well over night, and then were treated with various diluted concentrations (each concentration was arranged triple) of compounds 1–19, which were prepared with DMSO (Sigma) to 100 μM stock solution and stored in −20 °C in advance. After 24 h of treatment, 10 μL of MTT (5 mg/mL in PBS) was then added directly to all wells and the plates were placed in the dark at 37 °C for 3 h incubation. Cell viability was measured by observing absorbance at 570 nm on a SpectraMax^190 microplate reader (Molecular Devices, Silicon Valley, CA, USA). IC50 values were calculated using Microsoft Excel software (version 2010, Redmond, WA, USA). Taxol was used as a positive control.

Assay [2] relates to human non-small-cell lung carcinoma (NCI-H1650) cell line. The experiment in a line: Cytotoxicity assay (MTT), NCI-H1650. Format: cell-based. To be noted: for IC50: Homo sapiens, NCI-H1650, MTT, 24 h treatment. The procedure:
as §1

For assay [3], the system named is human ovarian cancer (A2780) cell line. The experiment in a line: Cytotoxicity assay (MTT), A2780. To be noted: 24 h treatment. Format: cell-based. The procedure:
as §1

For assay [4], the system named is LPS-induced NO production in RAW264.7 macrophages. The experiment in a line: LPS-induced nitric oxide (NO) production in RAW264.7 macrophages (Griess). Format: cell-based. To be noted: Mus musculus, LPS 1 μg/mL, 18 h, read-out: IC50 against LPS-induced NO production. The procedure: The RAW 264.7 macrophages were cultured in The RPMI 1640 medium (Hyclone, Logan, UT, USA) containing 10% FBS. The compounds were dissolved in DMSO and further diluted in medium to produce different concentrations. The cell mixture and culture medium were dispensed into 96-well plates (2 × 10^5 cells/well) and maintained at 37 °C under 5% CO2. After preincubation for 24 h, serial dilutions of the test compounds were added into the cells, up to the maximum concentration 25 μM, then added with LPS to a concentration 1 μg/mL and continued to incubate for 18 h. The amount of NO was assessed by determined the nitrite concentration in the cultured RAW264.7 macrophage supernatants with Griess reagent. Aliqueots of supernatants (100 μL) were incubated, in sequence, with 50 μL 1% sulphanilamide and 50 μL 1% naphthylethylenediamine in 2.5% phosphoric acid solution. The sample absorbance was measured at 570 nm by a 2104 Envision Multilabel Plate Reader (PerkinElmer, Inc., Waltham, MA, USA). Dexamethasone was used as a positive control.

Assay [5] has as its target T1, human protein tyrosine phosphatase 1B (GST-hPTP1B) (Homo sapiens, UniProt P18031).
T1 construct: GST; made in house
T1 sequence (P18031 1-435): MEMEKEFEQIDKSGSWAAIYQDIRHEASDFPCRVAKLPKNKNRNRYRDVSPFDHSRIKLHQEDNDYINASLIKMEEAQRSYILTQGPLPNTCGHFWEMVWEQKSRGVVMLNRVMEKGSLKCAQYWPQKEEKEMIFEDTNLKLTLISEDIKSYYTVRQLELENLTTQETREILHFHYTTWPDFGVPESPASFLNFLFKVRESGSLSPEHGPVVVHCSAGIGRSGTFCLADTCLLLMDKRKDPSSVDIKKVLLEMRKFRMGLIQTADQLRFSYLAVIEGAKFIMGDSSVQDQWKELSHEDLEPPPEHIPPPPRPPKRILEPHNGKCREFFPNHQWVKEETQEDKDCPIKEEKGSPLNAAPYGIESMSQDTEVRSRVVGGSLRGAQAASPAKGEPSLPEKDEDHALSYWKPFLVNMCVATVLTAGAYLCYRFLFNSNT
Description: PTP1B inhibition assay (p-NPP dephosphorylation). To be noted: 3 mM p-NPP, HEPES pH 7.0, 30 °C, 10 min; read-out: IC50 against PTP1B. Format: biochemical.
Description: The dephosphorylation of para-nitrophenyl phosphate (p-NPP) was catalyzed to para-nitrophenol by PTP1B. Enzyme activity involving an end-point assay, which intensified the yellow color, was measured at a wavelength of 405 nm. All compounds were dissolved in 100% dimethyl sulfoxide (DMSO), and reactions, including controls, were performed at a final concentration of 10% DMSO. Selected compounds were first evaluated for their ability to inhibit the PTPase reaction at a 10 μM concentration at 30 °C for 10 min, in a reaction system with 3 mM p-NPP in HEPES assay buffer (pH 7.0). The reaction was initiated by addition of the enzyme and quenched by addition of 1 M NaOH. The amount of the produced p-nitrophenol was determined at 405 nm using a microplate spectrophotometer (uQuant, Bio-Tek, Winooski, VT, USA). IC50 values were evaluated using a sigmoidal dose-response (variable slope) curve-fitting program of GraphPad Prism 4.0 software (La Jolla, CA, USA). Oleanolic acid was used as a positive control.

The IC50 is the point on the concentration scale where inhibition reaches its midpoint. With `COc1cc(C=CC(=O)OCC2C(c3cc(OC)c(O)c(OC)c3)OCC2C(OC)c2cc(OC)c(O)c(OC)c2)ccc1O` (stereo not shown) [Compound 9, 9′-O-(E)-Feruloyl-5,7,5′-trimethoxylariciresinol], the half-maximal inhibitory concentration (IC50) was greater than 20 µM in assay [1], 13.2 µM in assay [2] and greater than 20 µM in assay [3].

With `COc1cc([C@@H]2c3c(cc(OC)c(O)c3OC)C=C(C(=O)NCCc3ccc(O)cc3)[C@H]2CO)cc(OC)c1O` [Compound 1, (−)-(7′R,8′S)-N-[2-(4-hydroxyphenyl)-ethyl]-4,4′,9′-trihydroxy-3,5,3′,5′-tetramethoxy-2,7′-cyclolignan-7-en-9-amide], the concentration for half-maximal inhibition (IC50) in assay [1], in assay [2] and in assay [3] was greater than 20 µM throughout.

With `COc1cc(CC2COC(c3cc(OC)c(O)c(OC)c3)C2CO)ccc1O` (single isomer, unassigned; (+)) [Compound 16, (+)-5′-methoxylariciresinol], the IC50 in assay [1], in assay [2] and in assay [3] was greater than 20 µM throughout.

Consider `COc1cc(CC2COC(c3cc(OC)c(O)c(OC)c3)C2CO)cc(OC)c1O` (single isomer, unassigned; (+)) [Compound 15, (+)-5,5′-dimethoxylariciresinol], for which the IC50 in assay [1], in assay [2] and in assay [3] was greater than 20 µM in each case.

Regarding `CC(=O)O[C@H]1C(=O)[C@@]2(C)[C@H]([C@H](OC(=O)c3ccccc3)[C@]3(O)C[C@H](OC(=O)[C@H](O)[C@@H](NC(=O)c4ccccc4)c4ccccc4)C(C)=C1C3(C)C)[C@]1(OC(C)=O)CO[C@@H]1C[C@@H]2O` [Taxol, reference compound], the IC50 in assay [1] amounted to 0.005 µM; in assay [2], 1.28 µM; in assay [3], 0.02 µM.

Turning to `COc1cc(CCNC(=O)[C@@H]2C(C(=O)NCCc3ccc(O)cc3)=Cc3cc(OC)c(O)c(OC)c3[C@H]2c2cc(OC)c(O)c(OC)c2)ccc1O` [Compound 2, (−)-(7′R,8′S)-N^1-[2-(4-hydroxyphenyl)-ethyl]-N^2-[2-(4-hydroxy-3-methoxyphenyl)-ethyl]-4,4′-dihydroxy-3,5,3′,5′-tetramethoxy-2,7′-cyclolignan-7-en-9,9′-diamide], the IC50 in assay [1], in assay [2] and in assay [3] was greater than 20 µM in each case.

Take `COc1cc(C=CC(=O)OCC2C(C(=O)c3cc(OC)c(O)c(OC)c3)COC2c2cc(OC)c(O)c(OC)c2)ccc1O` (single isomer, unassigned; (+)) [Compound 7]: the IC50 is greater than 20 µM in assay [1], 2.47 µM in assay [2] and greater than 20 µM in assay [3]. The “folds more active than 8, 9, 13, and 14” value in assay [2] (NCI-H1650 cell line, versus 8, 9, 13 and 14) is listed as 4-6 folds.

`COc1cc(C=CC(=O)OCC2C(Cc3cc(OC)c(O)c(OC)c3)COC2c2cc(OC)c(O)c(OC)c2)cc(OC)c1O` (single isomer, unassigned; (+)) [Compound 8]: the IC50 was greater than 20 µM in assay [1], 11.2 µM in assay [2] and greater than 20 µM in assay [3].

Regarding `COc1cc(C[C@H]2COC(=O)[C@@H]2Cc2ccc(O)c(OC)c2)ccc1O` [Compound 18, matairesinol], the results for the IC50 in assay [1], in assay [2] and in assay [3] were 14 µM, greater than 20 µM and 1.53 µM, respectively.

With `C[C@@H]1C[C@H]2[C@@H]3CCC4=CC(=O)C=C[C@]4(C)[C@@]3(F)[C@@H](O)C[C@]2(C)[C@@]1(O)C(=O)CO` [Dexamethasone, reference compound], in assay [4], the IC50 came out at 9.5 µM.

`COc1cc(/C=C/C(=O)OC[C@@H](Cc2ccc(O)c(OC)c2)[C@@H](CO)Cc2ccc(O)c(OC)c2)ccc1O` [Compound 6, (+)-(8S,8′S)-9-O-(E)-feruloyl-secoisolariciresinol]: the IC50 in assay [1] is greater than 20 µM; in assay [2] it was greater than 20 µM; in assay [3] it was greater than 20 µM; in assay [4] it was 58.6 µM.

As for `COc1cc(/C=C/C(=O)OC[C@@H](Cc2cc(OC)c(O)c(OC)c2)[C@@H](CO)Cc2cc(OC)c(O)c(OC)c2)ccc1O` [Compound 5, (+)-(8S,8′S)-9-O-(E)-feruloyl-5,5′-dimethoxysecoisolariciresinol], the IC50 in assay [1] is greater than 20 µM; in assay [2], greater than 20 µM; in assay [3], greater than 20 µM; in assay [4] it was 50.1 µM.

With `COc1cc(C[C@H]2C(=O)OC[C@@H]2Cc2ccc(OC)c(OC)c2)ccc1O` [Compound 17, arctigenin], the IC50 in assay [1] was 3.25 µM; in assay [2], greater than 20 µM; in assay [3], 0.28 µM.

As for `COc1cc(/C=C/C(=O)OC[C@@H](Cc2cc(OC)c(O)c(OC)c2)[C@@H](COC(=O)/C=C/c2ccc(O)c(OC)c2)Cc2cc(OC)c(O)c(OC)c2)ccc1O` [Compound 11, (+)-9,9′-O-di-(E)-feruloyl-5,5′-dimethoxy secoisolariciresinol], the IC50 in assay [1] was greater than 20 µM; in assay [2], greater than 20 µM; in assay [3], greater than 20 µM; in assay [5], 13.5 µM; in assay [4], 47.5 µM.

Take `COc1cc(C=CC(=O)OCC2C(Cc3ccc(O)c(OC)c3)COC2c2cc(OC)c(O)c(OC)c2)ccc1O` (single isomer, unassigned; (+)) [Compound 14, (+)-9′-O-(E)-feruloyl-5′-methoxylariciresinol]: the IC50 is greater than 20 µM in assay [1], 10.5 µM in assay [2] and greater than 20 µM in assay [3].

Take `COc1cc(C=CC(=O)OCC2C(Cc3cc(OC)c(O)c(OC)c3)COC2c2cc(OC)c(O)c(OC)c2)ccc1O` (single isomer, unassigned; (+)) [Compound 13, (+)-9′-O-(E)-feruloyl-5,5′-dimethoxylariciresinol]: the IC50 is greater than 20 µM in assay [1], 9.68 µM in assay [2] and greater than 20 µM in assay [3].

In the case of `COc1cc([C@@H]2c3c(cc(OC)c(O)c3OC)C=C(C(=O)NCCc3ccc(O)cc3)[C@H]2C(=O)NCCc2ccc(O)cc2)cc(OC)c1O` [Compound 10, 1,2-dihydro-6,8-dimethoxy-7-hydroxy-1-(3,5-dimethoxy-4-hydroxyphenyl)-N^1,N^2-bis-[2-(4-hydroxypeenyl)ethyl]-2,3-naphthalene dicarboxamide], the IC50 in assay [1], in assay [2] and in assay [3] was greater than 20 µM throughout.

For the compound `COc1cc(CCNC(=O)C2=Cc3cc(OC)c(O)c(OC)c3[C@@H](c3cc(OC)c(O)c(OC)c3)[C@@H]2C(=O)NCCc2ccc(O)cc2)ccc1O` [Compound 3, (−)-(7′R,8′S)-N^1-[2-(4-hydroxy-3-methoxyphenyl)-ethyl]-N^2-[2-(4-hydroxyphenyl)-ethyl]-4,4′-dihydroxy-3,5,3′,5′-tetramethoxy-2,7′-cyclolignan-7-en-9,9′-diamide], the IC50 in assay [1], in assay [2] and in assay [3] was greater than 20 µM each time.

In the case of `COc1cc(/C=C/C(=O)OC[C@@H](Cc2ccc(O)c(OC)c2)[C@@H](COC(=O)/C=C/c2ccc(O)c(OC)c2)Cc2ccc(O)c(OC)c2)ccc1O` [Compound 12, (+)-9,9′-O-di-(E)-feruloyl-secoisolariciresinol], the IC50 was greater than 20 µM in assay [1], greater than 20 µM in assay [2], greater than 20 µM in assay [3] and 66.5 µM in assay [4].

As to `COc1cc(C=C2C(=O)OCC2Cc2ccc(OC)c(OC)c2)ccc1O` (stereo not shown) [Compound 19, (7E,8R′)-didehydroarctigenin], the IC50 in assay [1] is 18.5 µM; in assay [2], greater than 20 µM; in assay [3] it was 12.8 µM.

(Values after PMC6359749, “Lignans from the Twigs of Litsea cubeba and Their Bioactivities” (Molecules, 2019).)
